In patent publication US20230331675A1, “AROMATIC ETHYLENE COMPOUND AND PREPARATION METHOD THEREFOR, AND INTERMEDIATE, PHARMACEUTICAL COMPOSITION, AND APPLICATION THEREOF” (GUANGZHOU MAXINOVEL PHARMACEUTICALS CO., LTD., priority 2020, published 2023):

What follows are compounds tested against PD-1/PD-L1 (Homo sapiens (Human), UniProt Q9NZQ7) (assay: Homogeneous time-resolved fluorescence (HTRF) binding assay). Settings: CisBio kit, read-out: IC50 of compounds binding to PD-1/PD-L1.
Excerpt: Effect embodiment 1: Homogenouse time-resolved fluorescence
Homogeneous time-resolved fluorescence (HTRF) binding assay was used to determine the binding ability of the compound of the present disclosure to PD-1/PD-L1.
The purchased kit (CisBio, #64CUS000C-1) contained reagents required for assays such as PD-1, PD-L1, anti-tag1-Eu, Anti-tag2-XL665, dilute buffer, and detection buffer.
1. The compound was formulated to 10 concentrations with a 3-fold gradient with 100% DMSO.
2. The DMSO solution of the compound was added to the dilute buffer, mixed thoroughly, then transferred to a 96-well plate.
3. PD-L1 was diluted with dilute buffer, then added to the above 96-well plate.
4. PD-1 was diluted with dilute buffer and added to the above 96-well plate, which was then incubated at room temperature for 30 minutes.
5. A portion of anti-tag1-Eu and a portion of anti-tag2-XL665 were added to the detection buffer, mixed thoroughly and transferred to the above 96-well plate.
6. The mixture in the above 96-well plate was incubated at room temperature for 1 to 24 hours.
7. HTRF values were read with Envision.

Sequence of PD-1/PD-L1 (Q9NZQ7 19-238): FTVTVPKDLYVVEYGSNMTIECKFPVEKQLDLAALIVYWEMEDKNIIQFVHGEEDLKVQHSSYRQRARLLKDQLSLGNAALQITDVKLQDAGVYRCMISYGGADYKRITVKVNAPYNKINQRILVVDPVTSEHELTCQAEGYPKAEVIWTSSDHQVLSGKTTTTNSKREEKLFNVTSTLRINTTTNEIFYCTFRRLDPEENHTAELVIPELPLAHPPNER

Row | Compound | IC50
1 | COc1cc(/C=C/c2cccc(-c3ccccc3)c2C)c(C)cc1CN1CCCC[C@H]1C(=O)O [Compound 70, (S,E)-1-(2-Methoxy-5-methyl-4-(2-(2-methyl-[1,1′-biphenyl]-3-yl)vinyl)benzyl)piperidine-2-carboxylic acid] | 9.31 nM
2 | COCCOc1cc(/C=C/c2cccc(-c3ccccc3)c2C#N)c(CN[C@@](C)(CO)C(=O)O)cc1Cl [Compound 35, (S,E)-2-((5-Chloro-2-(2-(2-cyano-[1,1′-biphenyl]-3-yl)vinyl)-4-(2-methoxyethoxy)benzyl)amino)-3-hydroxy-2-methylpropanoic acid] | 1150 nM
3 | Cc1ccc(OCCCCC#N)c(CN2CCOC[C@H]2C(=O)O)c1/C=C/c1cccc(-c2ccccc2)c1C#N [Compound 46, (S,E)-4-(2-(2-(2-Cyano-[1,1′-biphenyl]-3-yl)vinyl)-6-(4-cyanobutoxy)-3-methylbenzyl)morpholine-3-carboxylic acid] | > 10000 nM
4 | [2H]C([2H])([2H])Oc1cc(/C=C/c2cccc(-c3ccccc3)c2C)c(C(F)(F)F)cc1CN1CCCC[C@H]1C(=O)O [Compound 60, (S,E)-1-(2-(Methoxy-d3)-4-(2-(2-methyl-[1,1′-biphenyl]-3-yl)vinyl)-5-trifluoromethylbenzyl)piperidine-2-carboxylic acid] | 0.59 nM
5 | [2H]C([2H])([2H])Oc1cc(/C=C/c2cccc(-c3ccccc3)c2C)c(Cl)cc1CN1CCCC[C@H]1C(=O)O [Compound 59, (S,E)-1-(5-Chloro-2-(methoxy-d3)-4-(2-(2-methyl-[1,1′-biphenyl]-3-yl)vinyl)benzyl)piperidine-2-carboxylic acid] | 8.9 nM
6 | (S,E)-2-((5-Chloro-2-(2-(2-cyano-[1,1′-biphenyl]-3-yl)vinyl)-4-(3-methylsulfonyl)propoxy)benzyl)amino)-3-hydroxy-2-methylpropionic acid [Compound 38] | 298 nM
7 | Cc1c(/C=C/c2ccc(CN3CCCC[C@H]3C(=O)O)cc2Cl)cccc1-c1ccccc1 [Compound 3, (S,E)-1-(3-Chloro-4-(2-(2-methyl-[1,1′-biphenyl]-3-yl)vinyl)benzyl)piperidine-2-carboxylic acid] | 87.1 nM
8 | COc1cc(/C(Br)=C/c2cccc(-c3ccccc3)c2C)c(C(F)(F)F)cc1CN1CCCC[C@H]1C(=O)O [Compound 67, (S,Z)-1-(4-(1-Bromo-2-(2-methyl-[1,1′-biphenyl]-3-yl)vinyl)-2-methoxy-5-trifluoromethylbenzyl)piperidine-2-carboxylic acid] | 12.8 nM
9 | Cc1ccc(OCCCCC#N)c(CN2CCCC[C@H]2C(=O)O)c1/C=C/c1cccc(-c2ccccc2)c1C#N [Compound 45, (S,E)-1-(2-(2-(2-Cyano-[1,1′-biphenyl]-3-yl)vinyl)-6-(4-cyanobutoxy)-3-methylbenzyl)piperidine-2-carboxylic acid] | > 10000 nM
10 | COCc1cc(/C=C/c2cccc(-c3ccccc3)c2C#N)c(C(F)(F)F)cc1CN1CCOC[C@H]1C(=O)O [Compound 50, (S,E)-4-(4-(2-(2-Cyano-[1,1′-biphenyl]-3-yl)vinyl)-2-(methoxymethyl)-5-trifluoromethylbenzyl)morpholine-3-carboxylic acid] | 141 nM
11 | (S,E)-1-(2-Methoxy-4-(2-(2-methyl-d3)-[1,1′-biphenyl]-3-yl)vinyl)-5-trifluoromethylbenzyl)piperidine-2-carboxylic acid [Compound 51] | 2.2 nM
12 | N#Cc1c(/C=C/c2ccc(CN3CCCC[C@H]3C(=O)O)cc2C(F)(F)F)cccc1-c1ccccc1 [Compound 1, (S,E)-1-(4-(2-(2-Cyano-[1,1′-biphenyl]-3-yl)vinyl)-3-trifluoromethylbenzyl)piperidine-2-carboxylic acid] | 10.2 nM
13 | COc1cc(/C=C/c2cccc(-c3ccccc3)c2C)c(C(F)(F)F)cc1CN1CCCC[C@@H]1C(=O)O [Compound 62, (R,E)-1-(2-Methoxy-4-(2-(2-methyl-[1,1′-biphenyl]-3-yl)vinyl)-5-trifluoromethylbenzyl)piperidine-2-carboxylic acid] | 7.42 nM
14 | COc1cc(/C(F)=C/c2cccc(-c3ccccc3)c2C)c(C(F)(F)F)cc1CN1CCCC[C@H]1C(=O)O [Compound 64, (S,Z)-1-(4-(1-Fluoro-2-(2-methyl-[1,1′-biphenyl]-3-yl)vinyl)2-methoxy-5-trifluoromethylbenzyl)piperidine-2-carboxylic acid] | 29.5 nM
15 | Cc1cc(CN2CCCC[C@H]2C(=O)O)c(C)cc1/C=C/c1cccc(-c2ccccc2)c1C#N [Compound 10] | 4.2 nM
16 | Cc1cc(CN2CCCC[C@H]2C(=O)O)c(OCc2cc(I)ccn2)cc1/C=C/c1cccc(-c2ccccc2)c1C [Compound 79, (S,E)-1-(2-((4-Iodo-pyridin-2-yl)methoxy)-5-methyl-4-(2-(2-methyl-[1,1′-biphenyl]-3-yl)vinyl)benzyl)piperidine-2-carboxylic acid] | 5.31 nM

Row | Compound | IC50
17 | Cc1cc(/C=C/c2cccc(-c3ccccc3)c2C#N)c(Cl)cc1CNCC(=O)O [Compound 19, (E)-(5-Chloro-4-(2-(2-cyano-[1,1′-biphenyl]-3-yl)vinyl)-2-methylbenzyl)glycine] | 6.2 nM
18 | Cc1cc(CN2CCNC[C@H]2C(=O)O)c(OCCCCC#N)cc1/C=C/c1cccc(-c2ccccc2)c1C#N [Compound 18, (S,E)-1-(4-(2-(2-Cyano-[1,1′-biphenyl]-3-yl)vinyl)-2-(4-cyanobutoxy)-5-methylbenzyl)piperazine-2-carboxylic acid] | 22.2 nM
19 | Cc1cc(/C=C/c2cccc(-c3ccccc3)c2C#N)c(Cl)cc1CN1CCOC[C@H]1C(=O)O [Compound 9, (S,E)-4-(5-Chloro-4-(2-(2-cyano-[1,1′-biphenyl]-3-yl)vinyl)-2-methylbenzyl)morpholine-3-carboxylic acid] | 25.8 nM
20 | Cc1c(/C=C/c2cc(OCc3ccnc(I)c3)c(CN3CCCC[C@H]3C(=O)O)cc2C(F)(F)F)cccc1-c1ccccc1 [Compound 81, (S,E)-1-(2-((2-Iodopyridin-4-yl)methoxy)-4-(2-(2-methyl-[1,1′-biphenyl]-3-yl)vinyl)-5-(trifluoromethyl)benzyl)piperidine-2-carboxylic acid] | 2.13 nM
21 | Cc1cc(/C=C/c2cccc(-c3ccccc3)c2C#N)c(Cl)cc1CN1CCN(C(N)=O)C[C@H]1C(=O)O [Compound 29, (S,E)-4-Carbamoyl-1-(5-chloro-4-(2-(2-cyano-[1,1′-biphenyl]-3-yl)vinyl)-2-methylbenzyl)piperazine-2-carboxylic acid] | 62 nM
22 | COCCOc1cc(/C=C/c2cccc(-c3ccccc3)c2C#N)c(C)cc1CN1CCNC[C@H]1C(=O)O [Compound 27, (S,E)-1-(4-(2-(2-Cyano-[1,1′-biphenyl]-3-yl)vinyl)-2-(2-methoxyethoxy)-5-methylbenzyl)piperazine-2-carboxylic acid] | 57.2 nM
23 | Cc1cc(OCCCCC#N)c(CN2CCCC[C@H]2C(=O)O)cc1/C=C/c1cccc(-c2ccccc2)c1C#N [Compound 39, (S,E)-1-(5-(2-(2-Cyano-[1,1′-biphenyl]-3-yl)vinyl)-2-(4-cyanobutoxy)-4-methylbenzyl)piperidine-2-carboxylic acid] | 172 nM
24 | COCc1cc(/C=C/c2cccc(-c3ccccc3)c2C#N)c(C(F)(F)F)cc1CN1CCCC[C@H]1C(=O)O [Compound 49, (S,E)-1-(4-(2-(2-Cyano-[1,1′-biphenyl]-3-yl)vinyl)-2-(methoxymethyl)-5-trifluoromethylbenzyl)piperidine-2-carboxylic acid] | 18.6 nM
25 | COCCOc1cc(C)c(/C=C/c2cccc(-c3ccccc3)c2C#N)cc1CN1CCCC[C@H]1C(=O)O [Compound 43, (S,E)-1-(5-(2-(2-Cyano-[1,1′-biphenyl]-3-yl)vinyl)-2-(2-methoxyethoxy)-4-methylbenzyl)piperidine-2-carboxylic acid] | 83.9 nM
26 | Cc1cc(/C=C/c2cccc(-c3ccccc3)c2C)c(Cl)cc1CN1CCOC[C@H]1C(=O)O [Compound 22, (S,E)-4-(5-Chloro-2-methyl-4-(2-(2-methyl-[1,1′-biphenyl]-3-yl)vinyl)benzyl)morpholine-3-carboxylic acid] | 11.4 nM
27 | COc1cc(/C=C/c2cccc(-c3ccccc3)c2CF)c(C(F)(F)F)cc1CN1CCCC[C@H]1C(=O)O [Compound 73, (S,E)-1-(4-(2-(2-Fluoromethyl-[1,1′-biphenyl]-3-yl)vinyl)-2-methoxy-5-trifluoromethylbenzyl)piperidine-2-carboxylic acid] | 3.99 nM
28 | Cc1cc(CNCC(=O)O)c(OCCCCC#N)cc1/C=C/c1cccc(-c2ccccc2)c1C#N [Compound 16, (E)-(4-(2-(2-Cyano-[1,1′-biphenyl]-3-yl)vinyl)-2-(4-cyanobutoxy)-5-methylbenzyl)glycine] | 14.5 nM
29 | Cc1cc(/C=C/c2cccc(-c3ccccc3)c2C#N)c(Cl)cc1CN1CCNC[C@H]1C(=O)O [Compound 13, (S,E)-1-(5-Chloro-4-(2-(2-cyano-[1,1′-biphenyl]-3-yl)vinyl)-2-methylbenzyl)piperazine-2-carboxylic acid] | 46 nM
30 | COc1cc(/C=C(\Br)c2cccc(-c3ccccc3)c2C)c(C)cc1CN1CCCC[C@H]1C(=O)O [Compound 68, (S,Z)-1-(4-(2-Bromo-2-(2-methyl-[1,1′-biphenyl]-3-yl)vinyl)-2-methoxy-5-methylbenzyl)piperidine-2-carboxylic acid] | 169 nM
31 | COc1cc(CN2CCCC[C@H]2C(=O)O)c(OC)cc1/C=C/c1cccc(-c2ccccc2)c1C [Compound 63, (S,E)-1-(2,5-Dimethoxy-4-(2-(2-methyl-[1,1′-biphenyl]-3-yl)vinyl)benzyl)piperidine-2-carboxylic acid] | 30.5 nM
